This note sets out measurements from patent publication US9255100B2 (BAYER INTELLECTUAL PROPERTY GMBH, priority 2010, dated 2016).

This experiment addresses T1, N-terminally GST-tagged human full length recombinant Mps-1 kinase (Homo sapiens, UniProt P33981).
T1 construct: N-terminally GST-tagged human full length recombinant Mps-1 kinase; purchased Invitrogen, Karslruhe, Germany PV4071
T1 sequence (P33981 1-857): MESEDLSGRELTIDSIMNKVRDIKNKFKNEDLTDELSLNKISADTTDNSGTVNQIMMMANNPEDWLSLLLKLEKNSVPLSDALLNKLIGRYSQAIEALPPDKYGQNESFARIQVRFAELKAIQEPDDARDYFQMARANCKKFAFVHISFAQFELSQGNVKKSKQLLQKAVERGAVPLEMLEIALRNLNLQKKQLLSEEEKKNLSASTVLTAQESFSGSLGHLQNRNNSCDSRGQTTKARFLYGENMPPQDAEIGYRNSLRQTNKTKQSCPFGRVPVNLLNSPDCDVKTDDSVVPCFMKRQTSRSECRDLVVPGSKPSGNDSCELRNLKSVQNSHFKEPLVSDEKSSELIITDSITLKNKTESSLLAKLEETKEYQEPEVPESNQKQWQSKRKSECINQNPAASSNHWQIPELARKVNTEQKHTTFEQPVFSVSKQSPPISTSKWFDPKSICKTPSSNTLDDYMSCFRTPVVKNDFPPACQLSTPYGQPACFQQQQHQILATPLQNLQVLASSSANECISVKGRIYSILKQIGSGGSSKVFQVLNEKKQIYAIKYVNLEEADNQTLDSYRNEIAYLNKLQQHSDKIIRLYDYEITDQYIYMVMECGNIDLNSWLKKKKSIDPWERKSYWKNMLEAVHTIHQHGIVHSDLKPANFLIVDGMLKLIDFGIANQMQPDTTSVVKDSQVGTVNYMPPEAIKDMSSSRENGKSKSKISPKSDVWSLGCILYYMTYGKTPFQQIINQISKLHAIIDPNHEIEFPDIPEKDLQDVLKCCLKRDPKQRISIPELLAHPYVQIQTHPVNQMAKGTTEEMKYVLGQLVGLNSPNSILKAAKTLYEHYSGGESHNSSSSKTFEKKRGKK
As to the kind of experiment: Mps-1 kinase assay (TR-FRET). Type of experiment: biochemical. The following applies: Mps1 IC50 [nM], 10 μM ATP, 1 μM peptide substrate, 60 min at 22° C. The procedure, abridged:
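TR-FRET signal between a Europium anti-phospho-Ser/Thr antibody and streptavidin-XLent reported phosphorylation of a biotinylated peptide by GST-tagged full-length Mps-1. Enzyme was near 1 nM final, chosen per lot for linearity.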
A general note: TR-FRET usually uses a lanthanide donor and a delayed reading to cut background.
The term IC50 denotes the concentration that gives 50% inhibition. As for `Cc1cc(F)ccc1Sc1cc(NCC(C)(C)O)c2ncc(-c3ccc(C(=O)NC4CC4)c(C)c3)n2n1` [Example 69, N-cyclopropyl-4-{6-[(4-fluoro-2-methylphenyl)sulfanyl]-8-[(2-hydroxy-2-methylpropyl)amino]imidazo[1,2-b]pyridazin-3-yl}-2-methylbenzamide], the IC50 came out at 1 nM.
Take `Cc1cc(-c2cnc3c(NC[C@H]4CC[S@+]([O-])CC4)cc(Sc4cccc(F)c4)nn23)ccc1C(=O)NC1CC1` [Example 304B, N-cyclopropyl-4-(6-[(3-fluorophenyl)sulfanyl]-8-({[(trans)-1-oxidotetrahydro-2H-thiopyran-4-yl]methyl}amino)imidazo[1,2-b]pyridazin-3-yl)-2-methylbenzamide]: the 50% inhibitory concentration (IC50) was found to be 0.1 nM.
Turning to `Cc1cc(-c2cnc3c(NCC(C)(C)N)cc(Oc4ccc(F)c(F)c4)nn23)ccc1C(=O)NC1CC1` [Example 520, 4-{8-[(2-amino-2-methylpropyl)amino]-6-(3,4-difluorophenoxy)imidazo[1,2-b]pyridazin-3-yl}-N-cyclopropyl-2-methylbenzamide], the 50% inhibitory concentration (IC50) was 0.2 nM.
Regarding `Cc1cc(-c2cnc3c(NCCC(F)(F)F)cc(Nc4cc(F)cc(F)c4)nn23)ccc1C(=O)NC1CC1` [Example 378, N-cyclopropyl-4-{6-[(3,5-difluorophenyl)amino]-8-[(3,3,3-trifluoropropyl)amino]imidazo[1,2-b]pyridazin-3-yl}-2-methylbenzamide], the IC50 was 0.2 nM.
In the case of `COc1ccc(C)c(Nc2cc(NCCC(F)(F)F)c3ncc(-c4ccc(C(=O)NC5CC5)c(C)c4)n3n2)c1` [Example 430, N-cyclopropyl-4-{6-[(5-methoxy-2-methylphenyl)amino]-8-[(3,3,3-trifluoropropyl)amino]imidazo[1,2-b]pyridazin-3-yl}-2-methylbenzamide], the IC50 turned out to be 0.3 nM.
Take `Cc1cc(-c2cnc3c(NCC(C)(C)O)cc(-c4cccnc4)nn23)ccc1C(=O)NC1CC1` [Example 156, N-cyclopropyl-4-{8-[(2-hydroxy-2-methylpropyl)amino]-6-(pyridin-3-yl)imidazo[1,2-b]pyridazin-3-yl}-2-methylbenzamide]: the IC50 turned out to be 5.1 nM.
To `OCc1ccccc1-c1cc(NCCC(F)(F)F)c2ncc(-c3ccc(C(=S)NC4CC4)cc3)n2n1` [Example 44, N-cyclopropyl-4-{6-[2-(hydroxymethyl)phenyl]-8-[(3,3,3-trifluoropropyl)amino]imidazo[1,2-b]pyridazin-3-yl}benzenecarbothioamide] belongs 2.6 nM; to `Cc1cc(-c2cnc3c(NCCO)cc(Oc4cccc(F)c4)nn23)ccc1C(=O)NC1CC1` [Example 277, N-cyclopropyl-4-{6-(3-fluorophenoxy)-8-[(2-hydroxyethyl)amino]imidazo[1,2-b]pyridazin-3-yl}-2-methylbenzamide], below 0.1 nM.
Consider `C/C=C(\C)c1cc(NCC(C)(C)O)c2ncc(-c3ccc(C(=O)NC4CC4)c(C)c3)n2n1` [Example 25, 4-{6-[(2E)-But-2-en-2-yl]-8-[(2-hydroxy-2-methylpropyl)amino]imidazo[1,2-b]pyridazin-3-yl}-N-cyclopropyl-2-methylbenzamide], for which the IC50 came out at 13.1 nM.
Take `CCNC(=O)c1ccc(-c2cnc3c(NCCN4CCOCC4)cc(Oc4cc(F)ccc4C)nn23)cc1C` [Example 592, N-ethyl-4-[6-(5-fluoro-2-methylphenoxy)-8-{[2-(morpholin-4-yl)ethyl]amino}imidazo[1,2-b]pyridazin-3-yl]-2-methylbenzamide]: the IC50 was 1.5 nM.
For `Cc1cc(-c2cnc3c(NCC(C)(C)O)cc(Sc4ccc(F)c(F)c4)nn23)ccc1C(=O)NC1CC1` [Example 300, N-cyclopropyl-4-{6-[(3,4-difluorophenyl)sulfanyl]-8-[(2-hydroxy-2-methylpropyl)amino]imidazo[1,2-b]pyridazin-3-yl}-2-methylbenzamide] the value was 0.8 nM; for `Cc1cc(-c2cnc3c(NCC4CCSCC4)cc(Sc4ccccc4)nn23)ccc1C(=O)NC1CC1` [Example 284, N-cyclopropyl-2-methyl-4-{6-(phenylsulfanyl)-8-[(tetrahydro-2H-thiopyran-4-ylmethyl)amino]imidazo[1,2-b]pyridazin-3-yl}benzamide], 0.4 nM.
On to `Cc1cc(-c2cnc3c(NCC4(CO)COC4)cc(Oc4cccc(F)c4)nn23)ccc1C(=O)NC1CC1` [Example 490, N-cyclopropyl-4-[6-(3-fluoro-phenoxy)-8-({[3-(hydroxymethyl)oxetan-3-yl]methyl}amino)imidazo[1,2-b]pyridazin-3-yl]-2-methylbenzamide], for which the 50% inhibitory concentration (IC50) is 1.5 nM.
For the compound `Cc1cc(-c2cnc3c(NCC(C)(C)N)cc(Oc4cccc(F)c4)nn23)ccc1C(=O)NC1CC1` [Example 314, 4-{8-[(2-amino-2-methyl-propyl)amino]-6-(3-fluorophenoxy)imidazo[1,2-b]pyridazin-3-yl}-N-cyclopropyl-2-methyl-benzamide], the IC50 is 0.2 nM.
Consider `Cc1cc(-c2cnc3c(NCCC(F)(F)F)cc(Nc4cccc(Cl)c4)nn23)ccc1C(=O)NC1CC1` [Example 379, 4-{6-[(3-chlorophenyl)amino]-8-[(3,3,3-trifluoropropyl)amino]imidazo[1,2-b]pyridazin-3-yl}-N-cyclopropyl-2-methylbenzamide], for which the IC50 is 0.2 nM.
For the compound `c1cc(-c2cc(NC[C@@H]3CCCO3)c3ncc(-c4ccc(-c5cnc(C6CC6)[nH]5)cc4)n3n2)ccn1` [Example 4, 3-[4-(2-Cyclopropyl-1H-imidazol-5-yl)phenyl]-6-(pyridin-4-yl)-N-[(2S)-tetrahydrofuran-2-ylmethyl]imidazo[1,2-b]pyridazin-8-amine], the IC50 was found to be 20.6 nM.
As for `Cc1cc(-c2cnc3c(NCC(C)(C)O)cc(Oc4cccc(Cl)c4)nn23)ccc1C(=O)NC1CC1` [Example 85, 4-{6-(3-Chlorophenoxy)-8-[(2-hydroxy-2-methylpropyl)amino]imidazo[1,2-b]pyridazin-3-yl}-N-cyclopropyl-2-methylbenzamide], the IC50 amounted to 0.2 nM.
With `Cc1cc(-c2cnc3c(NCC(C)(C)O)cc(Sc4cccc(O)c4)nn23)ccc1C(=O)NC1CC1` [Example 61A, N-cyclopropyl-4-{8-[(2-hydroxy-2-methylpropyl)amino]-6-[(3-hydroxyphenyl)sulfanyl]imidazo[1,2-b]pyridazin-3-yl}-2-methylbenzamide], the IC50 was 0.2 nM.
On to `CC=C(C)c1cc(NCC(C)(C)O)c2ncc(-c3ccc(-c4cnc(C5CC5)[nH]4)cc3)n2n1` (mixture of isomers) [Example 1, 1-({6-[(2E/Z)-But-2-en-2-yl]-3-[4-(2-cyclopropyl-1H-imidazol-5-yl)phenyl]imidazo[1,2-b]pyridazin-8-yl}amino)-2-methylpropan-2-ol], for which the IC50 amounted to 61.1 nM.
`COc1ccc(Nc2cc(NCC(C)(C)O)c3ncc(-c4ccc(C(=O)NC5CC5)c(C)c4)n3n2)cn1` [Example 366, N-cyclopropyl-4-{8-[(2-hydroxy-2-methylpropyl)amino]-6-[(6-methoxypyridin-3-yl)-amino]imidazo[1,2-b]pyridazin-3-yl}-2-methylbenzamide]: the IC50 was determined as 1.1 nM.
For `Cc1cc(-c2cnc3c(NCCC(F)(F)F)cc(SCCN4CCOCC4)nn23)ccc1C(=O)NC1CC1` [Example 215, N-cyclopropyl-2-methyl-4-(6-{[2-(morpholin-4-yl)ethyl]sulfanyl}-8-[(3,3,3-trifluoropropyl)amino]imidazo[1,2-b]pyridazin-3-yl)benzamide] the value was 1.7 nM; for `CC(C)(O)CNc1cc(-c2ccncc2)nn2c(-c3ccc(-c4cnc(C5CC5)[nH]4)cc3)cnc12` [Example 9, 1-({3-[4-(2-Cyclopropyl-1H-imidazol-5-yl)phenyl]-6-(pyridin-4-yl)imidazo[1,2-b]pyridazin-8-yl}amino)-2-methylpropan-2-ol], 25 nM.
`Cc1cc(-c2cnc3c(NCCC(F)(F)F)cc(Oc4cccc(F)c4)nn23)ccc1C(=O)O` [Example 550, 4-{6-(3-fluorophenoxy)-8-[(3,3,3-trifluoropropyl)amino]imidazo[1,2-b]pyridazin-3-yl}-2-methylbenzoic acid]: the IC50 came to 0.5 nM.
With `Cc1cc(-c2cnc3c(NCc4ccn(C)n4)cc(Oc4cccc(F)c4)nn23)ccc1C(=O)NC1CC1` [Example 488, N-cyclopropyl-4-[6-(3-fluoro-phenoxy)-8-{[(1-methyl-1H-pyrazol-3-yl)methyl]amino}imidazo[1,2-b]pyridazin-3-yl]-2-methylbenzamide], the IC50 came to 0.1 nM.
